# Values quoted from earlier work in patent publication US8124639B2, “Bicyclic [3.1.0] heteroaryl amides as type 1 glycine transport inhibitors” (Pfizer Inc., priority 2005, dated 2012).
# System: NMDA receptor
# Conditions: effect blocked by a specific NMDA-site antagonist and a glycine-site antagonist
smiles,measurement,value
CN(CCC(Oc1ccc(-c2ccccc2)cc1)c1ccc(F)cc1)CC(=O)O (stereo not shown) [NFPS],effect on postsynaptic current driven by the NMDA receptor,increased the postsynaptic current driven by the NMDA receptor
